Measured values as given in patent publication US11873291B2, “Quinoline cGAS antagonist compounds” (ImmuneSensor Therapeutics, Inc., priority 2020, dated 2024).

molecular target: T1, recombinant human cGAS (aa147-522) (Homo sapiens, UniProt Q8N884); test: In vitro inhibition assay of cGAS activity (ATP consumption, KinaseGlo Max); type: biochemical; settings: Table 2, read-out: cGAS Inhibition Results IC50
T1 construct: recombinant human cGAS (aa147-522); His6-SUMO (cleaved yes); made in house; host or cells: E. coli BL21/pLys
Summary of the method: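 De-tagged recombinant human cGAS (aa147-522, 1.5 μg/mL) was incubated 20 min at 37 °C with herring testis DNA, 6.6 μM ATP and 0.1 mM GTP in Tris pH 7.5/MgCl2 buffer plus serial compound dilutions. Remaining ATP was read by KinaseGlo Max luminescence, and IC50 was fitted from % ATP consumption versus log concentration.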

T1 sequence (Q8N884 147-522): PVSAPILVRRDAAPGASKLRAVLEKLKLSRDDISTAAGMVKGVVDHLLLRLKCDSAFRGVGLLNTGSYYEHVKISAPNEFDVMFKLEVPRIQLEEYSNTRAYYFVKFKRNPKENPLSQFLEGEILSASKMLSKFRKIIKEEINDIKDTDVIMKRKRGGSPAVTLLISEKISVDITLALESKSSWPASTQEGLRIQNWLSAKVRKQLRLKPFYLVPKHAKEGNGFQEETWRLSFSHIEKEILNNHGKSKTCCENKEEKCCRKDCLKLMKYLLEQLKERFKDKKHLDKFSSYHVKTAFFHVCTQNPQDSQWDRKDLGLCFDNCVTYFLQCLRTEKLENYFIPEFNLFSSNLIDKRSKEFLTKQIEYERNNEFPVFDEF

IC50, < 2000 nM:
O=C(O)[C@H]1CCCN1c1cc(-n2ccnc2)c2ccc(Cl)c(Cl)c2n1 [I-374]
O=C(C[C@@H]1CCCN1c1cc(-c2cn[nH]c2)c2ccc(Cl)c(Cl)c2n1)N1CCC[C@H]1CO [I-454]
O=P(O)(O)OC1CCCN(c2cc(-n3ccnc3)c3ccc(Cl)c(Cl)c3n2)C1 (stereo not drawn) [I-112, 1-(7,8-dichloro-4-(1H-imidazol-1-yl)quinolin-2-yl)piperidin-3-yl dihydrogen phosphate]
Oc1cccc(-c2cc(-n3ccnc3)c3ccc(Cl)c(Cl)c3n2)c1 [I-43]
O=P(O)(O)CCNc1cc(-n2ccnc2)c2ccc(Cl)c(Cl)c2n1 [I-250]
CN(CCC(=O)NCC(=O)O)c1cc(-n2ccnc2)c2ccc(Cl)c(Cl)c2n1 [I-321]
O[C@H]1CCN(c2cc(-n3ccnc3)c3ccc(Cl)c(Cl)c3n2)C1 [I-144]
CN(CCC(=O)N1CCC[C@H]1C(=O)O)c1cc(-c2cn[nH]c2)c2ccc(Cl)c(Cl)c2n1 [I-389]
CN(CCNS(C)(=O)=O)c1cc(-c2cn[nH]c2)c2ccc(Cl)c(Cl)c2n1 [I-235]
C[C@@H](Nc1cc(-c2cn[nH]c2)nc2c(Cl)c(Cl)ccc12)C(=O)O [I-286]
CN(C)S(=O)(=O)CCNc1cc(-n2ccnc2)c2ccc(Cl)c(Cl)c2n1 [I-202]
NC(=O)CCNc1cc(-c2cn[nH]c2)c2ccc(Cl)c(Cl)c2n1 [I-190]
O=C(O)c1cc(-c2cc(-n3ccnc3)c3ccc(Cl)c(Cl)c3n2)ccc1O [I-42, 5-(7,8-dichloro-4-(1H-imidazol-1-yl)quinolin-2-yl)-2-hydroxybenzoic acid]
O=C(O)CNC(=O)C[C@@H]1CCCN1c1cc(-n2ccnc2)c2ccc(Cl)c(Cl)c2n1 [I-156, (S)-(2-(1-(7,8-dichloro-4-(1H-imidazol-1-yl)quinolin-2-yl)pyrrolidin-2-yl)acetyl)glycine]
CCN1CCN(c2cc(-n3ccnc3)c3ccc(Cl)c(Cl)c3n2)CC1C(=O)O (stereo not drawn) [I-80]
O=C(O)[C@@H]1C[C@@H](O)CN1c1cc(-c2cn[nH]c2)c2ccc(Cl)c(Cl)c2n1 [I-433]

IC50, 2000 to 30000 nM:
NC(=O)c1cccc(-c2cc(-n3ccnc3)c3ccc(Cl)cc3n2)c1 [I-7, 3-(7-chloro-4-(1H-imidazol-1-yl)quinolin-2-yl)benzamide]
Nc1cccc(-c2cc(-n3ccnc3)c3ccc(Cl)cc3n2)c1 [I-8, 3-(7-chloro-4-(1H-imidazol-1-yl)quinolin-2-yl)aniline]
O=C(O)[C@H]1CCN1c1cc(-c2cn[nH]c2)c2ccc(Cl)c(Cl)c2n1 [I-359]
COC(=O)C1CCN(c2cc(-n3ccnc3)c3ccc(Cl)cc3n2)CC1 [I-131]
O=C(O)CNc1cc(-n2ccnc2)c2ccc(Cl)cc2n1 [I-166, (7-chloro-4-(1H-imidazol-1-yl)quinolin-2-yl)glycine]
CN(CCNS(=O)(=O)c1cncn1C)c1cc(-n2ccnc2)c2ccc(Cl)cc2n1 [I-232]
Clc1ccc2c(-c3cn[nH]c3)cc(NCC3CNCCO3)nc2c1Cl (stereo not drawn) [I-220]
Brc1ccc2c(-n3ccnc3)cc(-c3ccccc3)nc2c1 [I-424, 7-bromo-4-(1H-imidazol-1-yl)-2-phenylquinoline]
COC(=O)C1CCCN(c2cc(-n3ccnc3)c3ccc(Cl)cc3n2)C1 (stereo not drawn) [I-126]
C[C@@H](Nc1cc(-c2cn[nH]c2)c2ccc(Cl)c(Cl)c2n1)C(=O)O [I-180]
O=C(O)[C@@H]1C[C@@H](OCc2ccccc2)CN1c1cc(-c2cn[nH]c2)c2ccc(Cl)c(Cl)c2n1 [I-438]
Cc1cc(-n2ccnc2)c2ccc(Cl)c(Cl)c2n1 [I-405, 7,8-dichloro-4-(1H-imidazol-1-yl)-2-methylquinoline]
CC(C)(C)OC(=O)NS(=O)(=O)N1CCOC(CNc2cc(-n3ccnc3)c3ccc(Cl)c(Cl)c3n2)C1 (stereo not drawn) [I-398, tert-butyl ((2-(((7,8-dichloro-4-(1H-imidazol-1-yl)quinolin-2-yl)amino)methyl)morpholino)sulfonyl)carbamate]

IC50, > 30000 nM:
Cc1cc(NCCS(N)(=O)=O)c2ccc(Cl)c(Cl)c2n1 [I-308]
O=C(O)c1cccc(-c2cc(-c3ccn[nH]3)c3ccc(Cl)cc3n2)c1 [I-74, 3-(7-Chloro-4-(1H-pyrazol-5-yl)quinolin-2-yl)benzoic acid]
Oc1cc(-c2cc(-n3ccnc3)c3ccc(Cl)cc3n2)ccn1 [I-59]
O=c1[nH]c2cc(-c3cc(-n4ccnc4)c4ccc(Cl)cc4n3)ccc2o1 [I-36]
COC(=O)c1cncc(-c2cc(-n3ccnc3)c3ccc(Cl)cc3n2)c1 [I-34]
CC(C)(C)c1ccc2c(-c3cn[nH]c3)cc(NCCS(N)(=O)=O)nc2c1 [I-268]
COc1ccc2c(-c3cn[nH]c3)cc(NCCO)nc2c1 [I-377]
O=C(Nc1ccccc1)[C@@H]1CCCN1c1cc(-n2ccnc2)c2ccc(Cl)c(Cl)c2n1 [I-348]
O=C(O)CNc1cc(Cl)c2ccc(Cl)c(Cl)c2n1 [I-171]
Cc1cc(N2CCCNC(=O)C2)c2ccc(Cl)c(Cl)c2n1 [I-305]
NS(=O)(=O)CCNc1cc(NCC(=O)O)c2ccc(Cl)c(Cl)c2n1 [I-318, (7,8-dichloro-2-((2-sulfamoylethyl)amino)quinolin-4-yl)glycine]
Clc1ccc2c(-c3ccncc3)cc(-c3ccccc3)nc2c1 [I-70]

same assay, conditions: Table 3, read-out: cGAS Inhibition Results IC50

IC50, > 30000 nM:
COC(=O)C12CC(CN1c1cc(-n3ccnc3)c3ccc(Cl)c(Cl)c3n1)C2 [I-579]
O=c1nc([C@@H]2CCCN2c2cc(-n3ccnc3)c3ccc(Cl)c(Cl)c3n2)o[nH]1 [I-605, (S)-5-(1-(7,8-dichloro-4-(1H-imidazol-1-yl)quinolin-2-yl)pyrrolidin-2-yl)-1,2,4-oxadiazol-3(2H)-one]

IC50, < 2000 nM:
CO[C@H]1CCN(c2cc(-n3ccnc3)c3ccc(Cl)c(Cl)c3n2)[C@@H]1C(=O)O [I-560]
CN(CCS(=O)(=O)NCCO)c1cc(-n2ccnc2)c2ccc(Cl)c(Cl)c2n1 [I-624, 2-((7,8-dichloro-4-(1H-imidazol-1-yl)quinolin-2-yl)(methyl)amino)-N-(2-hydroxyethyl)ethane-1-sulfonamide]
O=C(O)C1CC2CCC(C1)N2c1cc(-n2ccnc2)c2ccc(Cl)c(Cl)c2n1 (stereo not drawn) [I-493]
O=C(O)C1CCN(C(=O)C[C@@H]2CCCN2c2cc(-n3ccnc3)c3ccc(Cl)c(Cl)c3n2)CC1 [I-529]
O=C(O)c1ccc(OC[C@@H]2CCCN2c2cc(-n3ccnc3)c3ccc(Cl)c(Cl)c3n2)cc1 [I-737]
CN(CCS(=O)(=O)N1CCCCC1C(=O)O)c1cc(-n2ccnc2)c2ccc(Cl)c(Cl)c2n1 (stereo not drawn) [I-629]
O[C@@H]([C@@H]1CCCN1c1cc(-n2ccnc2)c2ccc(Cl)c(Cl)c2n1)C(F)(F)F [I-654, (S)-1-((S)-1-(7,8-dichloro-4-(1H-imidazol-1-yl)quinolin-2-yl)pyrrolidin-2-yl)-2,2,2-trifluoroethan-1-ol]
O=C(O)c1ccn(CC[C@@H]2CCCN2c2cc(-n3ccnc3)c3ccc(Cl)c(Cl)c3n2)n1 [I-731]
C[C@@H]1C[C@@H](C(=O)O)N(c2cc(-n3ccnc3)c3ccc(Cl)c(Cl)c3n2)C1 [I-481]
CN(CCC(=O)NCCS(N)(=O)=O)c1cc(-n2ccnc2)c2ccc(Cl)c(Cl)c2n1 [I-567]
O=C(O)CCOC[C@@H]1CCC(=O)N1c1cc(-n2ccnc2)c2ccc(Cl)c(Cl)c2n1 [I-812, (S)-3-((1-(7,8-dichloro-4-(1H-imidazol-1-yl)quinolin-2-yl)-5-oxopyrrolidin-2-yl)methoxy)propanoic acid]
O=[PH](O)OC[C@@H]1CCCN1c1cc(-n2ccnc2)c2ccc(Cl)c(Cl)c2n1 [I-658, ((5)-1-(7,8-dichloro-4-(1H-imidazol-1-yl)quinolin-2-yl)pyrrolidin-2-yl)methyl hydrogen phosphonate]
O=C(O)CO[C@@H]1CCN(c2cc(-n3ccnc3)c3ccc(Cl)c(Cl)c3n2)[C@@H]1C(=O)O [I-561]
O=C(O)CO[C@H]1CCN(c2cc(-n3ccnc3)c3ccc(Cl)c(Cl)c3n2)C1 [I-770]
O=C(O)C1CC2CCC1N2c1cc(-n2ccnc2)c2ccc(Cl)c(Cl)c2n1 (stereo not drawn) [I-494]
O=C(O)C[C@@H]1CCCN1C(=O)[C@@H]1CCCN1c1cc(-n2ccnc2)c2ccc(Cl)c(Cl)c2n1 [I-553]
O=C(O)[C@@H]1CSCN1c1cc(-n2ccnc2)c2ccc(Cl)c(Cl)c2n1 [I-485]
CN(CCNS(=O)(=O)CC(=O)O)c1cc(-n2ccnc2)c2ccc(Cl)c(Cl)c2n1 [I-618]

IC50, 2000 to 30000 nM:
O=C(O)C12CC(CN1c1cc(-n3ccnc3)c3ccc(Cl)c(Cl)c3n1)C2 [I-474]
O=C(O)c1cccn1-c1cc(-n2ccnc2)c2ccc(Cl)c(Cl)c2n1 [I-506]
COc1ccc(OCCCN(c2cc(-n3ccnc3)c3ccc(Cl)c(Cl)c3n2)C(C)C)c(C(=O)O)c1 [I-849]
O=C(O)C1(c2ccccc2)CCCN1c1cc(-n2ccnc2)c2ccc(Cl)c(Cl)c2n1 (stereo not drawn) [I-457]
NS(=O)(=O)C1CCN(C(=O)C[C@@H]2CCCN2c2cc(-n3ccnc3)c3ccc(Cl)c(Cl)c3n2)C1 (stereo partly drawn) [I-537]
COC(=O)[C@@H]1C[C@@H](O)CN1c1cc(-n2ccnc2)c2ccc(Cl)c(Cl)c2n1 [I-472]
O=C(O)[C@@H]1Cc2ccccc2N1c1cc(-n2ccnc2)c2ccc(Cl)c(Cl)c2n1 [I-476]
CN(CCNC(=O)c1cccc(C(=O)O)c1)c1cc(-n2ccnc2)c2ccc(Cl)c(Cl)c2n1 [I-620]
